This assay deals with Carbonic anhydrase 2 (Homo sapiens, UniProt P00918). Nature of the assay: Fluorescence-Based CA II Binding Assay. Particulars: pH 7; 25 °C. The procedure:
The assay was performed according to a previously reported protocol.[Banerjee et al., Biochemistry, 44:3673-3682] DNSA stock solution was prepared at 1 mm in DMSO/water (1:1). CA II (1 mm) was added to the test probe (over a 0.1-100 mm concentration range) in HEPES buffer [HEPES (25 mm) with acetonitrile (10 %), pH 7.0] and mixed well. DNSA (0.1 mm) was added, and the resulting solution was incubated at RT for 10 min and then transferred into a black-wall 96-well plate (final volume […]). The fluorescence was measured with a Spectra Max 250 plate reader (Molecular Devices, Sunnyvale, CA, USA) at an excitation of 285 nm and emission of 465 nm at 25 °C.
As a reminder, the IC50 is the concentration that inhibits the measured activity by half. High values mean weaker potency, low ones greater potency. Take `C#CCOCCOCCOCCOCCOCCC(=O)Nc1ccc(C(=O)c2ccc(NC(=O)CCCC(=O)Nc3cccc(S(N)(=O)=O)c3)cc2)cc1` [N-{4-[4-(4,7,10,13,16-Pentaoxanonadec-18-ynamido)benzoyl]-phenyl}-N’-(3-sulfamoylphenyl)pentanediamide (5)]: the half-maximal inhibitory concentration (IC50) came to 0.914 µM.
In turn, `C#CCOCCOCCOCCOCCOCCC(=O)N[C@@H](Cc1cn(-c2ccc(C(=O)c3ccccc3)cc2)nn1)C(=O)NCCc1ccc(S(N)(=O)=O)cc1` [N-[(1S)-2-[1-(4-Benzoylphenyl)-1,2,3-triazol-4-yl]-1-{[2-(4-sulfamoylphenyl)ethyl]carbamoyl}ethyl]-4,7,10,13,16-pentaoxanonadec-18-ynamide (7)] displayed a half-maximal inhibitory concentration (IC50) of 0.604 µM.
The compound `C#CCOCCOCCOCCOCCOCCC(=O)N[C@@H](Cc1cn(-c2ccc(C(=O)c3ccccc3)cc2)nn1)C(=O)NCc1ccc(S(N)(=O)=O)cc1` [N-[(1S)-2-[1-(4-Benzoylphenyl)-1H-1,2,3-triazol-4-yl]-1-{[(4-sulfamoylphenyl)methyl]carbamoyl}ethyl]-4,7,10,13,16-pentaoxanonadec-18-ynamide (8)] came in with a half-maximal inhibitory concentration (IC50) of 3.1 µM.
`C#CCOCCOCCOCCOCCOCCC(=O)N[C@@H](Cc1cn(-c2ccc(C(=O)c3ccccc3)cc2)nn1)C(=O)Nc1ccc(S(N)(=O)=O)cc1` [N-[(1S)-2-[1-(4-Benzoylphenyl)-1H-1,2,3-triazol-4-yl]-1-[(4-sulfamoylphenyl)carbamoyl]ethyl]-4,7,10,13,16-pentaoxanonadec-18-ynamide (9)]: the IC50 turned out to be 1.55 µM.
To `C#CCOCCOCCOCCOCCOCCC(=O)N[C@@H](Cc1cn(-c2ccc(C(=O)c3ccccc3)cc2)nn1)C(=O)Nc1nnc(S(N)(=O)=O)s1` [N-{(1S)-2-[1-(4-Benzoylphenyl)-1H-1,2,3-triazol-4-yl]-1-[(5-sulfamoyl-1,3,4-thiadiazol-2-yl)carbamoyl]ethyl}-4,7,10,13,16-pentaoxanonadec-18-ynamide (11)] belongs 0.139 µM; to `C#CCOCCOCCOCCOCCOCCC(=O)Nc1ccc(C(=O)c2ccc(NC(=O)CCCC(=O)NCc3ccc(S(N)(=O)=O)cc3)cc2)cc1` [N-{4-[4-(4,7,10,13,16-Pentaoxanonadec-18-ynamido)benzoyl]-phenyl}-N’-[(4-sulfamoylphenyl)methyl]pentanediamide (3)], 1.22 µM.
To `C#CCOCCOCCOCCOCCOCCC(=O)Nc1ccc(C(=O)c2ccc(NC(=O)CCCC(=O)Nc3ccc(S(N)(=O)=O)cc3)cc2)cc1` [N-{4-[4-(4,7,10,13,16-Pentaoxanonadec-18-ynamido)benzoyl]-phenyl}-N’-(4-sulfamoylphenyl)pentanediamide (4)] belongs 0.36 µM.
In the case of `C#CCOCCOCCOCCOCCOCCC(=O)Nc1ccc(C(=O)c2ccc(NC(=O)CCNC(=O)c3ccc(S(N)(=O)=O)cc3)cc2)cc1` [N-[4-(4-{3-[(4-Sulfamoylphenyl)formamido]propanamido}benzoyl)phenyl]-4,7,10,13,16-pentaoxanonadec-18-ynamide (1)], the IC50 was 0.216 µM.
`C#CCOCCOCCOCCOCCOCCC(=O)N[C@@H](Cc1cn(-c2ccc(C(=O)c3ccccc3)cc2)nn1)C(=O)Nc1cccc(S(N)(=O)=O)c1` [N-{(1S)-2-[1-(4-Benzoylphenyl)-1H-1,2,3-triazol-4-yl]-1-[(3-sulfamoylphenyl)carbamoyl]ethyl}-4,7,10,13,16-pentaoxanonadec-18-ynamide (10)] gave an IC50 of 2.03 µM.
Compound `C#CCOCCOCCOCCOCCOCCC(=O)Nc1ccc(C(=O)c2ccc(NC(=O)c3ccc(S(N)(=O)=O)cc3)cc2)cc1` [N-{4-[4-(4-Sulfamoylbenzamido)benzoyl]phenyl}-4,7,10,13,16-pentaoxanonadec-18-ynamide (6)] displayed a half-inhibitory concentration (IC50) of 0.8 µM.
Consider `CCCOCCOCCOC#COCCOCCC(=O)N[C@@H](Cc1cn(-c2ccc(C(=O)c3ccccc3)cc2)nn1)C(=O)Nc1ccccc1` [N-[(1S)-2-[1-(4-Benzoylphenyl)-1H-1,2,3-triazol-4-yl]-1-(phenylcarbamoyl)ethyl]-4,7,10,13,16-pentaoxanonadec-8-ynamide (15)], for which the concentration for half-maximal inhibition (IC50) was above 5000 µM.
To `C#CCOCCOCCOCCOCCOCCC(=O)Nc1ccc(C(=O)c2ccc(NC(=O)CCNC(=O)c3ccccc3)cc2)cc1` [N-(4-{4-[3-(Phenylformamido)propanamido]benzoyl}phenyl)-4,7,10,13,16-pentaoxanonadec-18-ynamide (12)] belongs above 5000 µM; to `C#CCOCCOCCOCCOCCNC(=O)c1ccc(S(N)(=O)=O)cc1` [N-(3,6,9,12-Tetraoxapentadec-14-ynyl)-4-sulfamoylbenzamide (13)], 0.288 µM; to `C#CCOCCOCCOCCOCCOCCC(=O)Nc1ccc(C(=O)c2ccc(NC(=O)CCCC(=O)NCCc3ccc(S(N)(=O)=O)cc3)cc2)cc1` [N-{4-[4-(4,7,10,13,16-Pentaoxanonadec-18-ynamido)benzoyl]-phenyl}-N’-[2-(4-sulfamoylphenyl)ethyl]pentanediamide (2)], 0.502 µM.
